Experimental data reported in patent US20090264401A1, “SUBSTITUTED PYRIMIDIN-5-CARBOXAMIDES 281” (AstraZeneca AB, priority 2008, published 2009).
pIC50: −log10 of the molar value.

Target: T1, human 11βHSD1 enzyme (Homo sapiens, UniProt P28845)
T1 construct: baculovirus expressed N terminal 6-His tagged full length human 11βHSD1 enzyme; 6-His (N); made in house
Assay: 11βHSD1 cortisone to cortisol conversion, competitive HTRF assay
Assay type: biochemical
Settings: for inhibition at 30 µM: human 11-βHSD, test concentration of 30 μM of compound
Procedure, shortened: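 Enzyme was baculovirus-expressed, N-terminal 6-His-tagged full-length human 11βHSD1, purified on a copper chelate column. Compounds were added in buffer containing 1% DMSO at 10-fold final concentration.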

T1 sequence (P28845 whole entry): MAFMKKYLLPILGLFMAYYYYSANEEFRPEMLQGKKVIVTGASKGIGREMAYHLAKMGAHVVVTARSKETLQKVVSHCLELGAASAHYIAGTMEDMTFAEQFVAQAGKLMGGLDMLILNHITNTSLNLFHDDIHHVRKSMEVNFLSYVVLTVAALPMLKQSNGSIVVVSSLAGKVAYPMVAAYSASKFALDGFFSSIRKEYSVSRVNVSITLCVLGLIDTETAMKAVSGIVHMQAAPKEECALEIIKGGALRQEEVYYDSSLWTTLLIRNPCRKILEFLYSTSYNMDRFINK

Structure (SMILES) | inhibition at 30 µM [%] | pIC50 (recombinant N terminal 6-His tagged full length human 11βHSD1, cortisone 160 nM, 25 minutes at 37° C.)
Cc1ncc(C(=O)N[C@H]2C3CC4CC2C[C@@](O)(C4)C3)c(CC(C)(C)C)n1 [Example 193, 4-(2,2-Dimethylpropyl)-N-[(2r,5s)-5-hydroxyadamantan-2-yl]-2-methylpyrimidine-5-carboxamide] | 102 | 
O=C(N[C@H]1C2CC3CC1C[C@@](O)(C3)C2)c1cnc(N[C@@H]2CCOC2)nc1C1CCCC1 [Example 142, 4-cyclopentyl-N-[(2r,5s)-5-hydroxyadamantan-2-yl]-2-[[(3R)-oxolan-3-yl]amino]pyrimidine-5-carboxamide] | 99.7 | 
COc1ncc(C(=O)N[C@H]2C3CC4CC2C[C@@](O)(C4)C3)c(C2CC2)n1 [Example 33, 4-Cyclopropyl-N-[(2r,5s)-5-hydroxyadamantan-2-yl]-2-methoxypyrimidine-5-carboxamide] | 97.5 | 7.48
O=C(N[C@H]1C2CC3CC1C[C@@](O)(C3)C2)c1cnc(NC2COC2)nc1[C@H]1CCCO1 [Example 173, N-[(2r,5s)-5-hydroxyadamantan-2-yl]-2-(oxetan-3-ylamino)-4-[(2R)-oxolan-2-yl]pyrimidine-5-carboxamide] | 101 | 
O=C(N[C@H]1C2CC3CC1C[C@@](O)(C3)C2)c1cnc(NC2CCC2)nc1C1CC1 [Example 54, (cyclobutylamino)-4-cyclopropyl-N-[(2r,5s)-5-hydroxyadamantan-2-yl]pyrimidine-5-carboxamide] | 102 | 
COCCN1CCN(c2ncc(C(=O)N[C@H]3C4CC5CC3C[C@](O)(C5)C4)c(C3CCCC3)n2)CC1 [Example 125, 4-cyclopentyl-N-[(2r,5s)-5-hydroxyadamantan-2-yl]-2-[4-(2-methoxyethyl)piperazin-1-yl]pyrimidine-5-carboxamide] | 95 | 
CCCSc1nc(N2CCN(C(C)=O)CC2)ncc1C(=O)NC1C2CC3CC(C2)CC1C3 (stereo not drawn) [Example 27, 2-(4-Acetylpiperazin-1-yl)-N-(2-adamantyl)-4-propylsulfanyl-pyrimidine-5-carboxamide] | 95.5 | 
O=C(N[C@H]1C2CC3CC1C[C@@](O)(C3)C2)c1cnc(N[C@H]2CCOC2)nc1C1CCCC1 [Example 144, 4-cyclopentyl-N-[(2r,5s)-5-hydroxyadamantan-2-yl]-2-[[(3S)-oxolan-3-yl]amino]pyrimidine-5-carboxamide] | 98.8 | 
O=C(N[C@H]1C2CC3CC1C[C@@](O)(C3)C2)c1cnc(N2C[C@@H]3C[C@H]2CO3)nc1C1CCCC1 [Example 120, 4-cyclopentyl-N-[(2r,5s)-5-hydroxyadamantan-2-yl]-2-[(1S,4S)-2-oxa-5-azabicyclo[2.2.1]heptan-5-yl]pyrimidine-5-carboxamide] | 101 | 
CC(C)N1CCN(c2ncc(C(=O)N[C@H]3C4CC5CC3C[C@@](O)(C5)C4)c(C3CCCC3)n2)CC1=O [Example 127, 4-cyclopentyl-N-[(2r,5s)-5-hydroxyadamantan-2-yl]-2-(3-oxo-4-propan-2-ylpiperazin-1-yl)pyrimidine-5-carboxamide] | 103 | 
Cc1ncc(C(=O)N[C@H]2C3CC4CC2C[C@@](O)(C4)C3)c(C2CCCO2)n1 (stereo partly drawn) [Example 158, N-[(2r,5s)-5-hydroxyadamantan-2-yl]-2-methyl-4-(oxolan-2-yl)pyrimidine-5-carboxamide] | 96.5 | 
Cc1nc(N2CCOCC2)ncc1C(=O)NC1C2CC3CC(C2)CC1C3 (stereo not drawn) [Example 15, N-(2-adamantyl)-4-methyl-2-morpholin-4-ylpyrimidine-5-carboxamide] | 95.4 | 
O=C(N[C@H]1C2CC3CC1C[C@@](O)(C3)C2)c1cnc(OC2COC2)nc1C1CCC1 [Example 109, 4-cyclobutyl-N-[(2r,5s)-5-hydroxyadamantan-2-yl]-2-(oxetan-3-yloxy)pyrimidine-5-carboxamide] | 90.3 | 
CNc1ncc(C(=O)N[C@H]2C3CC4CC2C[C@@](O)(C4)C3)c(C2CCCO2)n1 (stereo partly drawn) [Example 161, N-[(2r,5s)-5-hydroxyadamantan-2-yl]-2-methylamino-4-(oxolan-2-yl)pyrimidine-5-carboxamide] | 105 | 
